Literature values, collected in patent US20250268885A1, “ORAL COMPOSITION COMPRISING NICOTINAMIDE” (CONARIS Research Institute AG, priority 2022, published 2025).

Details: sources collected in PubChem

For `NC(=O)c1cccnc1` [Nicotinamide, nicotinamide], the “solubility relative to diclofenac sodium” value is given as “several orders of magnitude higher”.
